What was measured:
[1] = Solubility of the compound at pH 2; format: physicochemical; details: buffer
[2] = Solubility of the compound at pH 7; format: physicochemical; details: buffer
[3] = Oral bioavailability in rat; format: ADME, organism-based; details: in vivo
[4] = Oral bioavailability in rhesus monkey; format: ADME, organism-based, Macaca mulatta; details: in vivo
[5] = Distribution coefficient, logD of compound; format: physicochemical; details: octanol/water

solubility [1]	solubility [2]	bioavailability [3]	bioavailability [4]	logD [5]	SMILES
< 0.8 µM	< 0.8 µM	–	–	–	CC[C@@](O)(c1cn(Cc2ccc3c(-c4ccc(F)cc4)cc(C(N)=O)nc3c2)nn1)C(F)(F)F
–	–	> 99%	> 99%	2.1	NC(=O)c1cc(-c2ccc(F)cc2)c2ccc(CN3C(=O)CCC3=O)cc2n1

— ChEMBL document CHEMBL4619715 (Bioorg Med Chem Lett, 2020)
